Laboratory results taken from US20260098008A1, “COVALENT, CHEMOGENETIC ACTIVATORS FOR K2P POTASSIUM CHANNELS AND USES THEREOF” (THE REGENTS OF THE UNIVERSITY OF CALIFORNIA, priority 2022, published 2026).
Changes are numbered by the printed parent chain.

Tests used:
[1] = molecular target: T1, A286F K2P2.1 (TREK-1) (Mus musculus, UniProt P97438, A301F); assay: TEVC in Xenopus oocytes, attenuated channels; assay type: cell-based; details: 20 μM; sequential addition of ML335, CAT335, BL-1249; 0 mV
T1 construct: expressed in transfected cells; host or cells: Xenopus laevis oocytes injected with mRNA
T1 sequence (P97438 1-411 isoform P97438-2 A286F): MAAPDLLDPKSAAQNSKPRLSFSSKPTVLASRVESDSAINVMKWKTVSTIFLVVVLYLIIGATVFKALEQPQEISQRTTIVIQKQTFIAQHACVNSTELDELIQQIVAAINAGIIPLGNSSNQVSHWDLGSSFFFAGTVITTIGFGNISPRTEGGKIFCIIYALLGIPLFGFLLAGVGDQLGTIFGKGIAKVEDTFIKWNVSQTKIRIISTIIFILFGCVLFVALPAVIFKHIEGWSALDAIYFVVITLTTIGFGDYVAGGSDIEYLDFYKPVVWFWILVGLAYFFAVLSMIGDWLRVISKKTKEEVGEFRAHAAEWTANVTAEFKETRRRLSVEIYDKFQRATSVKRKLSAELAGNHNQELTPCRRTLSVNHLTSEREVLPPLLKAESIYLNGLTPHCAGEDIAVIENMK
Source text: (§1) Mouse K2P2.1 (TREK-1) (Genbank accession number: NP_034737.2), mouse K2P10.1 (TREK-2) (NM_001316665.1), mouse K2P4.1 (TRAAK) (NM_008431.3), human K2P4.1 (TRAAK) (NM_033310.2) and mouse K2P18.1(TRESK) (NM_207261.3) were used for this study. Point mutations were introduced by site-directed mutagenesis using custom primers and confirmed by sequencing before use. For studies using Xenopus oocytes, K2P channels were subcloned into a previously reported pGEMHE/pMO vector (46). For expression in HEK293 cells, mouse K2P2.1 (TREK-1) and mutants were expressed from a previously described pIRES2-EGFP vector in HEK293 cells (46,47). K2P2.1 (TREK-1) tandems were constructed by connecting the open reading frames for the individual subunits with a linker encoding the […] (SEQ ID NO: 19) sequence. Tandems used for HEK293 cells included an N-terminal HA tag ([…] (SEQ ID NO: 20)) on the first subunit.
(§2) Xenopus laevis oocytes were harvested according to UCSF IACUC Protocol AN129690 and digested using collagenase (Worthington Biochemical Corporation, #LS004183, 0.8-1.0 mg/mL) in Ca^21-free ND96 (96 mM NaCl, 2 mM KCl, 3.8 mM MgCl2, 5 mM HEPES pH 7.4) immediately post-harvest, as previously reported (31,33). Oocytes were maintained at 18° C. in ND96 (96 mM NaCl, 2 mM KCl, 1.8 mM CaCl2, 2 mM MgCl2, 5 mM HEPES pH 7.4) supplemented with antibiotics (100 units mL^−1 penicillin, 100 μg mL^−1 streptomycin, 50 μg mL^−1 gentimycin) and used for experiments within one week of harvest.
(§3) Defolliculated stage V-VI oocytes were microinjected with 0.5-36 ng mRNA and currents were recorded within 16-48 h hours of injection.
(§4) For recordings, oocytes were impaled with borosilicate recording microelectrodes (0.4-2.0 MΩ resistance) backfilled with 3 M KCl and were subjected to constant perfusion of ND96 at a rate of 3 ml min^−1. Recording solutions containing K2P activators were prepared immediately prior to use from DMSO stocks (20-100 mM), with final DMSO concentrations of 0.1%. Currents were evoked from a −80 mV holding potential followed by a 300 ms ramp from −150 mV to +50 mV. Data were recorded using a GeneClamp 500B amplifier (MDS Analytical Technologies) controlled by pCLAMP8 software (Molecular Devices), and digitized at 1 kHz using Digidata 1332 Å digitizer (MDS Analytical Technologies). For each recording, control solution (ND96) was perfused over a single oocyte until current was stable before switching to solutions containing the test compounds at various concentrations. Representative traces and dose response plots were generated in GraphPad Prism 9.

[2] = molecular target: T2, G171F K2P2.1 (TREK-1) (Mus musculus, UniProt P97438, G186F); assay: TEVC in Xenopus oocytes, attenuated channels; assay type: cell-based; details: 20 μM; sequential addition of ML335, CAT335, BL-1249; 0 mV
T2 construct: expressed in transfected cells; host or cells: Xenopus laevis oocytes injected with mRNA
T2 sequence (P97438 1-411 isoform P97438-2 G171F): T1 sequence (P97438 1-411 isoform P97438-2 A286F) with G171F, F286A
Source text: as §1, §2, §3, §4

Fold-activation (I activator/I control) [1] | Fold-activation (I activator/I control) [2] | SMILES
1-1.8 fold | 1-1.8 fold | CS(=O)(=O)Nc1ccc(C(=O)NCc2ccc(Cl)cc2Cl)cc1 [ML335, reference compound]
insensitive | insensitive | O=C(NCc1ccc(Cl)cc1Cl)c1ccc(N2C(=O)C=CC2=O)cc1 [CAT335]
19.4±1.3 fold | 3.8±0.5 fold | c1ccc(-c2nn[nH]n2)c(Nc2cccc3c2CCCC3)c1 [BL-1249, reference compound]
